# According to US6689773B2, “Uracil substituted phenyl sulfamoyl carboxamides” (BASF Aktiengesellschaft, priority 2000, dated 2004):
# Columns and labels:
# Type in all cases: in vivo
# [1] = system: SETVI, Green foxtail, Setaria viridis, (L.)Beau; test: Postemergence herbicidal evaluation (Example 147); settings: rating scale 0-9, two to three weeks after treatment
# Experimental: (§1) Seedling plants were grown in jiffy flats for about two weeks. The test compounds were dispersed in 80/20 acetone/water mixtures containing 1.0% SUN-IT®II, a methylated seed oil, in sufficient quantities to provide the equivalent of about 0.016 to 0.032 kg per hectare of active compound when applied to the plants through a spray nozzle operating at 40 psi for a predetermined time. After spraying, the plants were placed on greenhouse benches and were cared for in accordance with conventional greenhouse procedures. Approximately two to three weeks after treatment, the seedling plants were examined and rated according to the rating scale (0-9) set forth below. Where more than one test is involved for a given compound, the data are averaged. [table] The scale is based upon a visual observation of plant stand, vigor, malformation, size, chlorosis and overall plant appearance as compared with a control. Plant species employed in these evaluations are reported by header abbreviation, common name and scientific name. [table]
# [2] = system: ECHCG, Barnyardgrass, Echinochloa crusgalli, (L.)Beau; test: Postemergence herbicidal evaluation (Example 147); settings: rating scale 0-9, two to three weeks after treatment
# Experimental: as §1
# [3] = system: ALOMY, Blackgrass, Alopecurus myosuroides; test: Postemergence herbicidal evaluation (Example 147); settings: rating scale 0-9, two to three weeks after treatment
# Experimental: as §1
# [4] = system: GLXMA, Soybean, Glycine max, (L.) Merr.; test: Postemergence herbicidal evaluation (Example 147); settings: rating scale 0-9, two to three weeks after treatment
# Experimental: as §1
# [5] = system: ABUTH, Velvetleaf, Abutilon theophrasti, Medic.; test: Postemergence herbicidal evaluation (Example 147); settings: rating scale 0-9, two to three weeks after treatment
# Experimental: as §1
# [6] = system: AMBEL, Ragweed, Common, Ambrosia artemiisifolia, L.; test: Postemergence herbicidal evaluation (Example 147); settings: rating scale 0-9, two to three weeks after treatment
# Experimental: as §1
# [7] = system: TRZAW, Winter wheat, Tritium Aestivum, L. (Winter); test: Postemergence herbicidal evaluation (Example 147); settings: rating scale 0-9, two to three weeks after treatment
# Experimental: as §1
# [8] = system: CHEAL, Lambsquarters, Chenopodium album, L. Common; test: Postemergence herbicidal evaluation (Example 147); settings: rating scale 0-9, two to three weeks after treatment
# Experimental: as §1
# [9] = system: IPOHE, Morningglory, Ivyleaf, Ipomoea hederacea, (L)Jacq.; test: Postemergence herbicidal evaluation (Example 147); settings: rating scale 0-9, two to three weeks after treatment
# Experimental: as §1
# [10] = system: ZEAMX, Field corn, Zea mays L.; test: Postemergence herbicidal evaluation (Example 147); settings: rating scale 0-9, two to three weeks after treatment
# Experimental: as §1
# [11] = system: DIGSA, Crabgrass, (Hairy) L, Digitaria sanguinalis, (L)Scop; test: Postemergence herbicidal evaluation (Example 147); settings: rating scale 0-9, two to three weeks after treatment
# Experimental: as §1
# [12] = system: SETVI, Green foxtail, Setaria viridis, (L.)Beau; test: Preemergence herbicidal evaluation (Example 148); settings: rating scale 0-9, two to four weeks after treatment
# Experimental: (§2) The scale is based upon a visual observation of plant stand, vigor, malformation, size, chlorosis and overall plant appearance as compared with a control.
# (§3) The herbicidal activity of the compounds of the present invention was evaluated by the following tests wherein the seeds of a variety of monocotyledonous and dicotyledonous plants were separately mixed with potting soil and planted on top of approximately one inch of soil in separate pint cups. After planting, the cups were sprayed with the selected aqueous acetone solution containing test compound in sufficient quantity to provide the equivalent of about 0.125 to 0.250 kg per hectare of test compound per cup. The treated cups were then placed on greenhouse benches, watered and cared for in accordance with conventional greenhouse procedures. From two to four weeks after treatment, the tests were terminated and each cup was examined and rated according to the rating system provided in Example 94. When more than one test was performed for a given compound, the data were averaged.
# [13] = system: ECHCG, Barnyardgrass, Echinochloa crusgalli, (L.)Beau; test: Preemergence herbicidal evaluation (Example 148); settings: rating scale 0-9, two to four weeks after treatment
# Experimental: as §2, §3
# [14] = system: ALOMY, Blackgrass, Alopecurus myosuroides; test: Preemergence herbicidal evaluation (Example 148); settings: rating scale 0-9, two to four weeks after treatment
# Experimental: as §2, §3
# [15] = system: GLXMA, Soybean, Glycine max, (L.) Merr.; test: Preemergence herbicidal evaluation (Example 148); settings: rating scale 0-9, two to four weeks after treatment
# Experimental: as §2, §3
# [16] = system: ABUTH, Velvetleaf, Abutilon theophrasti, Medic.; test: Preemergence herbicidal evaluation (Example 148); settings: rating scale 0-9, two to four weeks after treatment
# Experimental: as §2, §3
# [17] = system: XANST, Cocklebur, Xanthium strumariam; test: Preemergence herbicidal evaluation (Example 148); settings: rating scale 0-9, two to four weeks after treatment
# Experimental: as §2, §3
# [18] = system: AMBEL, Ragweed, Common, Ambrosia artemiisifolia, L.; test: Preemergence herbicidal evaluation (Example 148); settings: rating scale 0-9, two to four weeks after treatment
# Experimental: as §2, §3
# [19] = system: TRZAW, Winter wheat, Tritium Aestivum, L. (Winter); test: Preemergence herbicidal evaluation (Example 148); settings: rating scale 0-9, two to four weeks after treatment
# Experimental: as §2, §3
# [20] = system: CHEAL, Lambsquarters, Chenopodium album, L. Common; test: Preemergence herbicidal evaluation (Example 148); settings: rating scale 0-9, two to four weeks after treatment
# Experimental: as §2, §3
# [21] = system: IPOHE, Morningglory, Ivyleaf, Ipomoea hederacea, (L)Jacq.; test: Preemergence herbicidal evaluation (Example 148); settings: rating scale 0-9, two to four weeks after treatment
# Experimental: as §2, §3
# [22] = system: ZEAMX, Field corn, Zea mays L.; test: Preemergence herbicidal evaluation (Example 148); settings: rating scale 0-9, two to four weeks after treatment
# Experimental: as §2, §3
# [23] = system: DIGSA, Crabgrass, (Hairy) L, Digitaria sanguinalis, (L)Scop; test: Preemergence herbicidal evaluation (Example 148); settings: rating scale 0-9, two to four weeks after treatment
# Experimental: as §2, §3
# [24] = system: XANST, Cocklebur, Xanthium strumariam; test: Postemergence herbicidal evaluation (Example 147); settings: rating scale 0-9, two to three weeks after treatment
# Experimental: as §1
structure (smiles),measurement,setting,value
CC(C)CCNS(=O)(=O)NC(=O)c1cc(-n2c(=O)cc(C(F)(F)F)n(C)c2=O)c(F)cc1Cl [Example 72],Postemergence herbicidal rating SETVI,[1]; rate 0.016 kg/ha,5.0
same,Postemergence herbicidal rating SETVI,[1]; rate 0.032 kg/ha,6.0
same,Postemergence herbicidal rating ECHCG,[2]; rate 0.016 kg/ha,6.0
same,Postemergence herbicidal rating ECHCG,[2]; rate 0.032 kg/ha,8.0
same,Postemergence herbicidal rating ALMOY,[3]; rate 0.016 kg/ha,1.0
same,Postemergence herbicidal rating ALMOY,[3]; rate 0.032 kg/ha,2.0
same,Postemergence herbicidal rating GLXMA,[4]; rate 0.016 kg/ha,8.5
same,Postemergence herbicidal rating GLXMA,[4]; rate 0.032 kg/ha,8.5
same,Postemergence herbicidal rating ABUTH,[5]; rate 0.016 kg/ha,9.0
same,Postemergence herbicidal rating ABUTH,[5]; rate 0.032 kg/ha,9.0
same,Postemergence herbicidal rating AMBEL,[6]; rate 0.016 kg/ha,9.0
same,Postemergence herbicidal rating AMBEL,[6]; rate 0.032 kg/ha,9.0
same,Postemergence herbicidal rating TRZAW,[7]; rate 0.016 kg/ha,5.5
same,Postemergence herbicidal rating TRZAW,[7]; rate 0.032 kg/ha,6.5
same,Postemergence herbicidal rating CHEAL,[8]; rate 0.016 kg/ha,8.0
same,Postemergence herbicidal rating CHEAL,[8]; rate 0.032 kg/ha,8.0
same,Postemergence herbicidal rating IPOHE,[9]; rate 0.016 kg/ha,9.0
same,Postemergence herbicidal rating IPOHE,[9]; rate 0.032 kg/ha,9.0
same,Postemergence herbicidal rating ZEAMX,[10]; rate 0.016 kg/ha,7.0
same,Postemergence herbicidal rating ZEAMX,[10]; rate 0.032 kg/ha,7.0
same,Postemergence herbicidal rating DIGSA,[11]; rate 0.016 kg/ha,4.0
same,Postemergence herbicidal rating DIGSA,[11]; rate 0.032 kg/ha,4.0
same,Preemergence herbicidal rating SETVI,[12]; rate 0.125 kg/ha,4.0
same,Preemergence herbicidal rating SETVI,[12]; rate 0.25 kg/ha,8.0
same,Preemergence herbicidal rating ECHCG,[13]; rate 0.125 kg/ha,7.0
same,Preemergence herbicidal rating ECHCG,[13]; rate 0.25 kg/ha,6.0
same,Preemergence herbicidal rating ALMOY,[14]; rate 0.125 kg/ha,1.0
same,Preemergence herbicidal rating ALMOY,[14]; rate 0.25 kg/ha,2.0
same,Preemergence herbicidal rating GLXMA,[15]; rate 0.125 kg/ha,8.0
same,Preemergence herbicidal rating GLXMA,[15]; rate 0.25 kg/ha,9.0
same,Preemergence herbicidal rating ABUTH,[16]; rate 0.125 kg/ha,9.0
same,Preemergence herbicidal rating ABUTH,[16]; rate 0.25 kg/ha,9.0
same,Preemergence herbicidal rating XANST,[17]; rate 0.125 kg/ha,7.0
same,Preemergence herbicidal rating XANST,[17]; rate 0.25 kg/ha,9.0
same,Preemergence herbicidal rating AMBEL,[18]; rate 0.125 kg/ha,9.0
same,Preemergence herbicidal rating AMBEL,[18]; rate 0.25 kg/ha,9.0
same,Preemergence herbicidal rating TRZAW,[19]; rate 0.125 kg/ha,0.0
same,Preemergence herbicidal rating TRZAW,[19]; rate 0.25 kg/ha,1.0
same,Preemergence herbicidal rating CHEAL,[20]; rate 0.125 kg/ha,9.0
same,Preemergence herbicidal rating CHEAL,[20]; rate 0.25 kg/ha,9.0
same,Preemergence herbicidal rating IPOHE,[21]; rate 0.125 kg/ha,9.0
same,Preemergence herbicidal rating IPOHE,[21]; rate 0.25 kg/ha,9.0
same,Preemergence herbicidal rating ZEAMX,[22]; rate 0.125 kg/ha,0.0
same,Preemergence herbicidal rating ZEAMX,[22]; rate 0.25 kg/ha,0.0
same,Preemergence herbicidal rating DIGSA,[23]; rate 0.125 kg/ha,2.0
same,Preemergence herbicidal rating DIGSA,[23]; rate 0.25 kg/ha,7.0
CCCNS(=O)(=O)NC(=O)c1cc(-n2c(=O)cc(C(F)(F)F)n(C)c2=O)c(F)cc1Cl [Example 63],Postemergence herbicidal rating SETVI,[1]; rate 0.016 kg/ha,7.0
same,Postemergence herbicidal rating SETVI,[1]; rate 0.032 kg/ha,9.0
same,Postemergence herbicidal rating ECHCG,[2]; rate 0.016 kg/ha,4.0
same,Postemergence herbicidal rating ECHCG,[2]; rate 0.032 kg/ha,6.0
same,Postemergence herbicidal rating ALMOY,[3]; rate 0.016 kg/ha,2.0
same,Postemergence herbicidal rating ALMOY,[3]; rate 0.032 kg/ha,2.0
same,Postemergence herbicidal rating GLXMA,[4]; rate 0.016 kg/ha,8.0
same,Postemergence herbicidal rating GLXMA,[4]; rate 0.032 kg/ha,8.0
same,Postemergence herbicidal rating ABUTH,[5]; rate 0.016 kg/ha,9.0
same,Postemergence herbicidal rating ABUTH,[5]; rate 0.032 kg/ha,9.0
same,Postemergence herbicidal rating XANST,[24]; rate 0.016 kg/ha,9.0
same,Postemergence herbicidal rating XANST,[24]; rate 0.032 kg/ha,9.0
same,Postemergence herbicidal rating AMBEL,[6]; rate 0.016 kg/ha,9.0
same,Postemergence herbicidal rating AMBEL,[6]; rate 0.032 kg/ha,9.0
same,Postemergence herbicidal rating TRZAW,[7]; rate 0.016 kg/ha,6.0
same,Postemergence herbicidal rating TRZAW,[7]; rate 0.032 kg/ha,7.0
same,Postemergence herbicidal rating CHEAL,[8]; rate 0.016 kg/ha,7.0
same,Postemergence herbicidal rating CHEAL,[8]; rate 0.032 kg/ha,9.0
same,Postemergence herbicidal rating IPOHE,[9]; rate 0.016 kg/ha,9.0
same,Postemergence herbicidal rating IPOHE,[9]; rate 0.032 kg/ha,9.0
same,Postemergence herbicidal rating ZEAMX,[10]; rate 0.016 kg/ha,7.0
same,Postemergence herbicidal rating ZEAMX,[10]; rate 0.032 kg/ha,8.0
same,Postemergence herbicidal rating DIGSA,[11]; rate 0.016 kg/ha,4.0
same,Postemergence herbicidal rating DIGSA,[11]; rate 0.032 kg/ha,4.0
same,Preemergence herbicidal rating SETVI,[12]; rate 0.125 kg/ha,4.0
same,Preemergence herbicidal rating SETVI,[12]; rate 0.25 kg/ha,8.0
same,Preemergence herbicidal rating ECHCG,[13]; rate 0.125 kg/ha,4.0
same,Preemergence herbicidal rating ECHCG,[13]; rate 0.25 kg/ha,9.0
same,Preemergence herbicidal rating ALMOY,[14]; rate 0.125 kg/ha,0.0
same,Preemergence herbicidal rating ALMOY,[14]; rate 0.25 kg/ha,0.0
same,Preemergence herbicidal rating GLXMA,[15]; rate 0.125 kg/ha,1.0
same,Preemergence herbicidal rating GLXMA,[15]; rate 0.25 kg/ha,5.0
same,Preemergence herbicidal rating ABUTH,[16]; rate 0.125 kg/ha,9.0
same,Preemergence herbicidal rating ABUTH,[16]; rate 0.25 kg/ha,9.0
same,Preemergence herbicidal rating AMBEL,[18]; rate 0.125 kg/ha,9.0
same,Preemergence herbicidal rating AMBEL,[18]; rate 0.25 kg/ha,9.0
same,Preemergence herbicidal rating TRZAW,[19]; rate 0.125 kg/ha,0.0
same,Preemergence herbicidal rating TRZAW,[19]; rate 0.25 kg/ha,0.0
same,Preemergence herbicidal rating CHEAL,[20]; rate 0.125 kg/ha,9.0
same,Preemergence herbicidal rating CHEAL,[20]; rate 0.25 kg/ha,9.0
same,Preemergence herbicidal rating IPOHE,[21]; rate 0.125 kg/ha,9.0
same,Preemergence herbicidal rating IPOHE,[21]; rate 0.25 kg/ha,9.0
same,Preemergence herbicidal rating ZEAMX,[22]; rate 0.125 kg/ha,0.0
same,Preemergence herbicidal rating ZEAMX,[22]; rate 0.25 kg/ha,0.0
same,Preemergence herbicidal rating DIGSA,[23]; rate 0.125 kg/ha,3.0
same,Preemergence herbicidal rating DIGSA,[23]; rate 0.25 kg/ha,8.0
